Counter-ions that a name gives are not always drawn. Like-named read-outs stand apart in the source and are kept apart here.
Legend:
Leishmania infantum = test: Growth inhibition of L. infantum; assay type: cell-based; conditions: mean ± standard deviation, n ≥ 2
Experimental: (§1) G. lamblia trophozoites (WBC6) were seeded into 96-well-plates in 0.2 mL Keister-medium containing 10^3 trophozoites per well in the presence of the compounds dissolved in dimethyl sulfoxide (DMSO, final concentration 0.25%) or with DMSO as a solvent control and incubated for 72 h at 37 °C in an anaerobic chamber (80% N2, 10% H2, 10% CO2). Then, plates were centrifuged (2 min, 1000 rpm), medium was removed, and cells were washed once with PBS containing 1 g/L glucose. Then, PBS-glucose containing 10 mg/L resazurin was added, and plates were incubated for up to 5 h at 37 °C. Fluorescence reading (ex 530 nm/em 590 nm) was performed at various time points, and the linear increase of fluorescence was used as a marker for cell viability. IC50 values were calculated using the logit-log algorithm and are given as mean values with 95%-confidence intervals ([Müller et al., 2020]; [Müller and Hemphill, 2013]; [Müller and Müller, 2019]). The assays for growth inhibition of T. b. brucei, T. cruzi, L. infantum, P. falciparum and MRC-5 (human lung fibroblasts MRC-5SV40) were previously described ([Blaazer et al., 2014]). PDE activity was determined exactly as described ([de Heuvel et al., 2021]; [Kunz et al., 2005], [2017b]). All assays were carried out in triplicates and no more than 20% substrate was hydrolyzed in all reactions. Compounds were dissolved in DMSO and the final DMSO concentration was 1% in all reaction mixes. Control reactions with DMSO alone were always included. Data were analyzed using the GraphPad Prism software package (v7.0, GraphPad, San Diego).

[1] = test system: G. lamblia trophozoites (WBC6); test: Growth inhibition of G. lamblia trophozoites (WBC6), resazurin viability read-out; assay type: cell-based, Giardia lamblia; conditions: for IC50: Giardia duodenalis, WBC6 trophozoites, 72 h, anaerobic, mean ± standard error (95% CI, logit-log), quadruplicates, read-out: IC50 (nM) G.l.
Experimental: as §1
Figure S67. Representative drug susceptibility curves of G. lamblia WBC6. Trophozoites were grown anaerobically in the presence of various concentrations of 17 (red), 29 (blue) and the reference compound metronidazole (MET, black). After 72 h, growth of cells was monitored by a cell viability assay based on the reduction of resazurin to a pink fluorescent product. Measured fluorescence units were normalized to the DMSO control. Data points and error bars represent mean and standard error of 4 replicates.

[2] = test system: Trypanosoma brucei brucei; test: Growth inhibition of T. b. brucei; assay type: cell-based; conditions: mean ± standard deviation, n ≥ 2
Experimental: as §1

Trypanosoma cruzi = test: Growth inhibition of T. cruzi; assay type: cell-based; conditions: mean ± standard deviation, n ≥ 2
Experimental: as §1

[3] = test system: MRC-5 (human lung fibroblasts MRC-5SV40); test: Cytotoxicity on MRC-5 cells; assay type: cell-based
Experimental: as §1, with “[…]-medium” for “Keister-medium”, “([[…],” for “([Müller et al., 2020]; [Müller and Hemphill, 2013]; [Müller and Müller,”

Plasmodium falciparum = test: Growth inhibition of P. falciparum; assay type: cell-based
Experimental: as §1, with “[…]-medium” for “Keister-medium”, “([[…],” for “([Müller et al., 2020]; [Müller and Hemphill, 2013]; [Müller and Müller,”

[4] = MRC5, mean ± standard deviation, n ≥ 2, read-out: IC50 (nM) MRC-5
[5] = mean ± standard deviation, n ≥ 2, read-out: IC50 (µM) P.f.
[6] = MRC5, Table S1, mean ± standard deviation, n ≥ 2, read-out: IC50 (µM) MRC-5

SMILES: O=[N+]([O-])c1cnc2ccc(N3CCC(c4ccccc4)CC3)nn12 [Compound 26, 3-Nitro-6-(4-phenylpiperidin-1-yl)imidazo[1,2-b]pyridazine]
- IC50 (Leishmania infantum): > 64 µM
- IC50 [1]: 8.2 ± 1 nM
- IC50 [2]: > 64 µM
- IC50 (Trypanosoma cruzi): > 64 µM
- IC50 [3, 4]: > 64000 nM
- IC50 (Plasmodium falciparum; [5]): > 64 µM

SMILES: COc1ccc(C2=NN(C3CCN(c4ccc5ncc([N+](=O)[O-])n5n4)CC3)C(=O)[C@H]3CC=CC[C@@H]23)cc1OCc1cccc([N+](=O)[O-])c1 (relative stereo) [Compound 13, cis-4-(4-Methoxy-3-((3-nitrobenzyl)oxy)phenyl)-2-(1-(3-nitroimidazo[1,2-b]pyridazin-6-yl)piperidin-4-yl)-4a,5,8,8a-tetrahydrophthalazin-1(2H)-one]
- IC50 (Leishmania infantum): 32.5 µM
- IC50 [1]: 1.2 ± 0.4 nM
- IC50 [2]: > 64 µM
- IC50 (Trypanosoma cruzi): > 64 µM
- IC50 [3, 4]: > 64000 nM
- IC50 (Plasmodium falciparum; [5]): 1.6 ± 0.7 µM

SMILES: Cc1ccc(C(=O)Nc2ccc(S(=O)(=O)O)c3cc(S(=O)(=O)O)cc(S(=O)(=O)O)c23)cc1NC(=O)c1cccc(NC(=O)Nc2cccc(C(=O)Nc3cc(C(=O)Nc4ccc(S(=O)(=O)O)c5cc(S(=O)(=O)O)cc(S(=O)(=O)O)c45)ccc3C)c2)c1 [Suramine, suramin, reference compound]
- IC50 [2]: 0.05 ± 0.02 µM

SMILES: CN(C)c1ccc2ncc([N+](=O)[O-])n2n1 [Compound 21, N,N-Dimethyl-3-nitroimidazo[1,2-b]pyridazin-6-amine]
- IC50 (Leishmania infantum): > 64 µM
- IC50 [1]: 22 ± 3 nM
- IC50 [2]: > 64 µM
- IC50 (Trypanosoma cruzi): > 64 µM
- IC50 [3, 4]: > 64000 nM
- IC50 (Plasmodium falciparum; [5]): > 64 µM

SMILES: COc1ccc(C2=NN(C3CCN(c4ccc5ncc([N+](=O)[O-])n5n4)CC3)C(=O)[C@H]3CC=CC[C@@H]23)cc1OCc1cccnc1 (relative stereo) [Compound 15, cis-4-(4-Methoxy-3-(pyridin-3-ylmethoxy)phenyl)-2-(1-(3-nitroimidazo[1,2-b]pyridazin-6-yl)piperidin-4-yl)-4a,5,8,8a-tetrahydrophthalazin-1(2H)-one]
- IC50 (Leishmania infantum): 8.1 µM
- IC50 [1]: 6.8 ± 1.5 nM
- IC50 [2]: 2.2 µM
- IC50 (Trypanosoma cruzi): 2.1 µM
- IC50 [3, 6]: 14900 ± 11500 nM
- IC50 [3, 4]: 15000 nM
- IC50 (Plasmodium falciparum; [5]): 2.1 ± 0.8 µM

SMILES: O=[N+]([O-])c1cnc2ccc(N3CCCC3)nn12 [Compound 22, 3-Nitro-6-(pyrrolidin-1-yl)imidazo[1,2-b]pyridazine]
- IC50 (Leishmania infantum): > 64 µM
- IC50 [1]: 2.3 ± 0.4 nM
- IC50 [2]: > 64 µM
- IC50 (Trypanosoma cruzi): > 64 µM
- IC50 [3, 4]: > 64000 nM
- IC50 (Plasmodium falciparum; [5]): > 64 µM

SMILES: O=[N+]([O-])c1cnc2ccc(N3CCC(N4CCCC4)CC3)nn12 [Compound 25, 3-Nitro-6-(4-(pyrrolidin-1-yl)piperidin-1-yl)imidazo[1,2-b]pyridazine formate]
- IC50 (Leishmania infantum): > 64 µM
- IC50 [1]: 5.8 ± 0.9 nM
- IC50 [2]: > 64 µM
- IC50 (Trypanosoma cruzi): 39.9 ± 3.7 µM
- IC50 [3, 4]: > 64000 nM
- IC50 (Plasmodium falciparum; [5]): > 64 µM

SMILES: O=[N+]([O-])c1cnc2ccc(N3CCC(Cc4ccccc4)CC3)nn12 [Compound 28, 6-(4-Benzylpiperidin-1-yl)-3-nitroimidazo[1,2-b]pyridazine]
- IC50 (Leishmania infantum): > 64 µM
- IC50 [1]: 0.5 ± 0.1 nM
- IC50 [2]: 27.6 ± 4.2 µM
- IC50 (Trypanosoma cruzi): 8.6 ± 0.2 µM
- IC50 [3, 6]: 8000 ± 200 nM
- IC50 [3, 4]: 7960 nM
- IC50 (Plasmodium falciparum; [5]): 23.4 ± 7.2 µM

SMILES: CCN(CC)CCCC(C)Nc1ccnc2cc(Cl)ccc12 (centres unmarked) [Chloroquine, chloroquine, reference compound]
- IC50 (Plasmodium falciparum; read-out: IC50 (µM) P.f.): 0.1 ± 0.03 µM

SMILES: COc1ccc(C2=NN(C3CCN(c4ccc5ncc([N+](=O)[O-])n5n4)CC3)C(=O)[C@H]3CC=CC[C@@H]23)cc1OCc1ccccn1 (relative stereo) [Compound 17, cis-4-(4-Methoxy-3-(pyridin-2-ylmethoxy)phenyl)-2-(1-(3-nitroimidazo[1,2-b]pyridazin-6-yl)piperidin-4-yl)-4a,5,8,8a-tetrahydrophthalazin-1(2H)-one]
- IC50 (Leishmania infantum): 11.8 ± 7.5 µM
- IC50 [1]: 0.5 ± 0.1 nM
- fold higher anti-Giardia activity than metronidazole ([1]; versus metronidazole IC50 = 0.8 μM): > 1,000 fold
- IC50 [2]: 4.92 ± 1.6 µM
- IC50 (Trypanosoma cruzi): 2.1 ± 0.1 µM
- IC50 [3, 4]: > 64000 nM
- IC50 (Plasmodium falciparum; [5]): 2.3 ± 1.4 µM

SMILES: COc1ccc(CN(C)c2ccc3ncc([N+](=O)[O-])n3n2)cc1 [Compound 30, N-(4-Methoxybenzyl)-N-methyl-3-nitroimidazo[1,2-b]pyridazin-6-amine]
- IC50 (Leishmania infantum): 46.9 ± 5.5 µM
- IC50 [1]: 10.3 ± 1.5 nM
- IC50 [2]: > 64 µM
- IC50 (Trypanosoma cruzi): 29.7 ± 5.7 µM
- IC50 [3, 4]: > 64000 nM
- IC50 (Plasmodium falciparum; [5]): > 64 µM

SMILES: COc1ccc(C2=NN(C3CCN(c4ccc5ncc([N+](=O)[O-])n5n4)CC3)C(=O)[C@H]3CC=CC[C@@H]23)cc1OC1CCCC1 (relative stereo) [Compound 12, cis-4-(3-(Cyclopentyloxy)-4-methoxyphenyl)-2-(1-(3-nitroimidazo[1,2-b]pyridazin-6-yl)piperidin-4-yl)-4a,5,8,8a-tetrahydrophthalazin-1(2H)-one]
- IC50 (Leishmania infantum): 25.9 ± 24.4 µM
- IC50 [1]: 9.3 ± 0.6 nM
- IC50 [2]: 2.1 µM
- IC50 (Trypanosoma cruzi): 2.2 µM
- IC50 [3, 4]: > 64000 nM
- IC50 (Plasmodium falciparum; [5]): 3 ± 1.9 µM

SMILES: O=C(Cn1ccnc1[N+](=O)[O-])NCc1ccccc1 [benznidazole, reference compound]
- IC50 (Trypanosoma cruzi): 2.5 ± 0.4 µM

SMILES: CN1CCN(c2ccc3ncc([N+](=O)[O-])n3n2)CC1 [Compound 24, 6-(4-Methylpiperazin-1-yl)-3-nitroimidazo[1,2-b]pyridazine formate]
- IC50 (Leishmania infantum): > 64 µM
- IC50 [1]: 144 ± 31 nM
- IC50 [2]: > 64 µM
- IC50 (Trypanosoma cruzi): 33.5 ± 1.1 µM
- IC50 [3, 4]: > 64000 nM
- IC50 (Plasmodium falciparum; [5]): > 64 µM

SMILES: COc1ccccc1COc1cc(C2=NN(C3CCN(c4ccc5ncc([N+](=O)[O-])n5n4)CC3)C(=O)[C@H]3CC=CC[C@@H]23)ccc1OC (relative stereo) [Compound 16, cis-4-(4-Methoxy-3-((2-methoxybenzyl)oxy)phenyl)-2-(1-(3-nitroimidazo[1,2-b]pyridazin-6-yl)piperidin-4-yl)-4a,5,8,8a-tetrahydrophthalazin-1(2H)-one]
- IC50 (Leishmania infantum): 30.6 ± 2.3 µM
- IC50 [1]: 2.8 ± 0.8 nM
- IC50 [2]: 1.4 ± 0.4 µM
- IC50 (Trypanosoma cruzi): 11.2 ± 7.9 µM
- IC50 [3, 6]: 48900 ± 21400 nM
- IC50 [3, 4]: 49000 nM
- IC50 (Plasmodium falciparum; [5]): 1.1 ± 0.5 µM

SMILES: O=C(c1ccccc1)C1CCN(c2ccc3ncc([N+](=O)[O-])n3n2)CC1 [Compound 29, (1-(3-Nitroimidazo[1,2-b]pyridazin-6-yl)piperidin-4-yl)(phenyl)methanone]
- IC50 (Leishmania infantum): 11.7 ± 1.4 µM
- IC50 [1]: 1.1 ± 0.2 nM
- IC50 [2]: 34.4 ± 2.4 µM
- IC50 (Trypanosoma cruzi): 18.9 ± 13.9 µM
- IC50 [3, 4]: > 64000 nM
- IC50 (Plasmodium falciparum; [5]): > 64 µM

SMILES: O=[N+]([O-])c1cnc2ccc(N3CCN(c4ccccc4)CC3)nn12 [Compound 27, 3-Nitro-6-(4-phenylpiperazin-1-yl)imidazo[1,2-b]pyridazine]
- IC50 (Leishmania infantum): 35.3 ± 4 µM
- IC50 [1]: 0.7 ± 0.1 nM
- IC50 [2]: > 64 µM
- IC50 (Trypanosoma cruzi): > 64 µM
- IC50 [3, 4]: > 64000 nM
- IC50 (Plasmodium falciparum; [5]): > 64 µM

SMILES: c1cn2nc(N3CCCCC3)ccc2n1 [Compound 31, 6-(Piperidin-1-yl)imidazo[1,2-b]pyridazine]
- IC50 (Leishmania infantum): > 64 µM
- anti-Giardia activity (in words) [1]: inactive
- difference in inhibiting growth of G. lamblia ([1]; 31 (non-nitro analogue) versus 23): > 2,500 folds
- IC50 [1]: > 10000 nM
- IC50 [2]: > 64 µM
- IC50 (Trypanosoma cruzi): 38.4 ± 3.2 µM
- IC50 [3, 4]: > 64000 nM
- IC50 (Plasmodium falciparum; [5]): > 64 µM

SMILES: Cc1ncc([N+](=O)[O-])n1CCO [metronidazole, reference compound]
- IC50 [1]: 800 ± 100 nM

SMILES: CCCCCCCCCCCCCCCCOP(=O)([O-])OCC[N+](C)(C)C [Miltefosine, miltefosine, reference compound]
- IC50 (Leishmania infantum): 10.3 ± 1.3 µM

Source: paper PMC9213561, “3-nitroimidazo[1,2-b]pyridazine as a novel scaffold for antiparasitics with sub-nanomolar anti-Giardia lamblia activity” (International Journal for Parasitology: Drugs and Drug …, 2022)
